Assay [1] addresses T1, human GLP-1R (Homo sapiens, UniProt P43220).
T1 construct: expressed in transfected cells; vector pcDNA5/FRT
The assay can be described thus: cAMP generation by membranes from HEK-GLP-1R cells. The class given is biochemical. The following applies: 5 min, 30°C, IBMX. How it is done:
(§1) The cAMP was extracted from either intact cell or membrane preparations using a method identical to that for extraction of Ins(1,4,5)P3 [22]. Levels of cAMP were then determined by a competitive radioreceptor assay using binding protein purified from bovine adrenal glands and related to cellular protein assessed by Bradford assay.
(§2) Concentration-response curves were fitted using GraphPad Prism (GraphPad Software Inc., CA) using a standard four parameter logistic equation. All data are representative of n≥3 or are presented as mean+/±s.e.m., where n = 3 unless otherwise stated. Statistical analysis was by oneway ANOVA and where P<0.05, followed by Bonferroni's or Dunnett's multiple range test as indicated. Alternatively analysis was performed by Student's t-test. Where potency estimates are given these are pEC50 values (−log10 of the molar concentration giving 50% of the maximal response).

For assay [2], the target named is T1, human GLP-1R. The assay can be described thus: Intracellular Ca2+ signaling in fluo-4-loaded HEK-GLP-1R cells. It is filed as cell-based. Here is the method:
as §2

For another assay, the system named is wild-type HEK293 cells. Description: ERK activation in wild-type HEK293 cells. The following applies: data not shown. It is filed as cell-based. Here is the method:
Cells grown to confluence on 24-well plates pre-coated with poly-D-lysine (0.1% w/v) were washed and equilibrated in KHB at 37°C (400 µl). Cells were challenged at 37°C in 400 µl KHB-BSA and reactions terminated by replacement of buffer with 100 µl ice-cold Laemmli sample buffer (62.5 mM Tris-HCl, pH 6.8, 2% w/v SDS, 10% v/v glycerol, 50 mM DTT and 0.1% bromophenol blue). Proteins (∼30 µg) were separated by 12% SDS-PAGE, transferred onto polyvinylidene fluoride membranes, blocked for 1 h in 5% (w/v) skimmed milk powder in TTBS (150 mM NaCl, 50 mM Tris, pH 7.5, 0.1% Tween-20) and incubated overnight at 4°C with anti-phospho-ERK antibody (1∶2000) or anti-S6 antibody (1∶20,000) in 3% BSA in TTBS. Blots were washed (3×10 min) in TTBS and incubated for 1 h with anti-mouse HRP conjugated secondary antibody (1∶1000 in blocking buffer). After washing in TTBS (3×10 min), blots were exposed to ECL detection reagents (Uptima-Interchim, Montlucon, France) according to the manufacturer's guidelines and bands visualised using Kodak Medical X-ray film (Wolf Laboratories Ltd, Pocklington, U.K.). The intensities of the immunoblot bands were determined using ImageJ.

In the next assay the test system is adenylyl cyclase. The assay can be described thus: cAMP generation by direct activation of adenylyl cyclase with forskolin. It is filed as biochemical. The following applies: data not shown. Here is the method: Generation of cAMP by cell membranes was determined based on previously published methods, [21]. Membranes were prepared from confluent cell monolayers grown in 80 cm^2 flasks. Cells were washed with 5 ml HBS (154 mM NaCl, 10 mM HEPES, pH 7.4, 37°C), detached using harvesting buffer (154 mM NaCl, 10 mM HEPES, 5.4 mM EDTA, pH 7.4, 37°C) and collected by centrifugation (200 g, 2 min, 4°C). The cell pellet was resuspended in 1 ml of homogenization buffer (10 mM HEPES, 10 mM EDTA, pH 7.4) and sonicated (Sonifier Ultrasonic Cell Disruptor; Branson, CT) at 30% of the maximal amplitude for 3×5 s at ∼30 s intervals before centrifugation (30,000 g, 4°C, 10 min). After removal of the supernatant, pellets were collected in resuspension buffer (10 mM HEPES, 0.1 mM EDTA, pH 7.4), protein concentration adjusted to 1 mg/ml and stored in aliquots at −80°C until assay. Generation of cAMP was determined in 100 µl containing: 10 mM HEPES, 12 mM MgCl2, 60 mM NaCl, 1.2 mM EDTA, 1.2% w/v BSA, 5% DMSO, 480 µM ATP, 2 mM IBMX, 10 µM GTP, 20 µg membrane and ligands as indicated. […]
as §1

For a further assay, the system named is GLP-1R. The following applies: ref [7]; cited from earlier work.
In assay [3] the target is T1, human GLP-1R. Particulars: earlier studies; interpretation may be compromised by adverse effects of compound 2; ref [7]; cited from earlier work. From the text: Given its physiological roles, the GLP-1R is targeted for treatment of type 2 diabetes. […] Such proteolysis is thought to remove biological activity.

T1 sequence (P43220 24-463): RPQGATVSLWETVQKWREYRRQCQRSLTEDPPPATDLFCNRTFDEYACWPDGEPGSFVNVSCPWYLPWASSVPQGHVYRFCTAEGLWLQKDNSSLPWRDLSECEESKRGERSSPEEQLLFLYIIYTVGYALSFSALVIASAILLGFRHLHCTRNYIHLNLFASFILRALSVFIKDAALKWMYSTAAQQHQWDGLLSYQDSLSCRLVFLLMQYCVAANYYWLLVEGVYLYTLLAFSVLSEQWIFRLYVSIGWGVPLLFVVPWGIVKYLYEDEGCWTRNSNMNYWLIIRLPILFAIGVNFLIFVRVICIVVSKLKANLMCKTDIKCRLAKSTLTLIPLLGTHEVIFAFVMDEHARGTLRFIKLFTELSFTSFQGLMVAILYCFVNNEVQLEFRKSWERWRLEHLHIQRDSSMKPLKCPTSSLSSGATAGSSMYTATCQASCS

Turning to `CC(C)(C)Nc1nc2cc(Cl)c(Cl)cc2nc1S(C)(=O)=O` [compound 2, 6,7-dichloro-2-methylsulfonyl-3-N-tert-butylaminoquinoxaline], the “cAMP response in membranes (in words)” value on human GLP-1R [1] is recorded as “enhanced the ability of GLP-1 9–36 amide to increase cAMP”. Moreover, at human GLP-1R [1] (compound 2 alone, 3 µM, mean±s.e.m., n = 3), the “cAMP level (membranes)” value worked out at 2623±269 pmol/mg protein. Moreover, the “fluorescence change sensitive to thapsigargin” value at human GLP-1R [2] (compound 2, 10 µM) was “did not cause an appreciable, thapsigargin-sensitive increase in fluorescence”; at human GLP-1R [2] (compound 2, 100 µM, with/without thapsigargin (2 µM, 5 min)), “a proportion of the change in fluorescence in response to compound 2 was blocked by thapsigargin”. Also, in the assay on wild-type HEK293 cells, the “ERK activation in wild-type HEK293 cells” value is “Neither GLP-1 9–36 amide, GLP-1 7–36 amide nor compound 2 increased ERK activation”. In the assay with adenylyl cyclase, the “effect on forskolin-stimulated cAMP generation” value is reported as “inability of compound 2 to influence cAMP generation”. In addition, the “effect on GLP-1 7–36 amide-mediated internalization of the GLP-1R” value in the assay on GLP-1R is on record as “can inhibit GLP-1 7–36 amide-mediated internalization of the GLP-1R”. In addition, on human GLP-1R [3], the “effect on GLP-1 7–36 amide potency (cAMP)” value was “actually reduced GLP-1 7–36 amide potency”.
